This note sets out measurements from US10023519B2, “Cyclobutane containing carboxylic acid GPR120 modulators” (BRISTOL-MYERS SQUIBB COMPANY, priority 2014, dated 2018).

Molecules are shown by their SMILES. pEC50: −log10 of the molar value.

Broadly, the pEC50 is the negative decadic logarithm of the EC50, by convention in mol/L. A higher pEC50 goes with a low EC50.

The experiment deals with human GPR120 (Homo sapiens (Human), UniProt Q5NUL3). Kind of experiment: GPR120 pERK AlphaScreen SureFire Assay (human). To be noted: CHO cells stably transfected with short form of human GPR120. The experiment is classed as cell-based.
Sequence of human GPR120 (Q5NUL3 whole entry): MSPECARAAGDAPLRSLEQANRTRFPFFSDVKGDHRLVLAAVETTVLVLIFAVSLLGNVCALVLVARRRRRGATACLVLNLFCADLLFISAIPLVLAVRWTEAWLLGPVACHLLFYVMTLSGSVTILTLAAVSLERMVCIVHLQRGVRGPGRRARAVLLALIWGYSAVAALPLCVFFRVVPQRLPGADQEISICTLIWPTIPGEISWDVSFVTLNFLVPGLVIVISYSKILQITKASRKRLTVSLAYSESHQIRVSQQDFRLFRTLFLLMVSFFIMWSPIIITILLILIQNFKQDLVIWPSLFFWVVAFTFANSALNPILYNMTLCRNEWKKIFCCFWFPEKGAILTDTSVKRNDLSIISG
Description: GPR120 activity was monitored by measuring phosphorylation of ERK (pERK), since G protein receptors are known to activate the ERK signaling cascade either directly and/or through recruitment of arrestin that serves as a scaffold for downstream signaling events.
GPR120 pERK AlphaScreen SureFire Assay
The human and mouse GPR120-mediated intracellular phosphorylated ERK assays were established using CHOA12 cells stably transfected with the short form of human or mouse GPR120 receptor. […] Cells were cryo preserved at a concentration of 2×10^7 cells/mL, in 90% Charcoal/Dextran FBS and 10% DMSO, and frozen in liquid nitrogen at a low passage number.
The flasks were placed in a tissue culture incubator overnight (37° C., 5% CO2). […] The next day, cells were serum starved in 30 μL of F-12 media without any serum or antibiotics for 2 hours at 37° C.
Cells were then stimulated with 50 nL of compound dilutions using ECHO liquid handler for 7 minutes at 37° C.
(§1) The lysis buffer was diluted 5-fold with water before use. […] The SureFire assay reagent mix was prepared by mixing 60 parts Reaction Buffer, 10 parts Activation Buffer, 1 part Donor Beads, 1 part Acceptor Beads (Perkin Elmer Cat. #TGRES10K). 3.5 μL/well of this reagent mix was manually added to the proxiplate with a multichannel pipettor. Plates were spun down at 1000 rpm for 2 minutes, followed by light-protected incubation at room temperature for 2 hours. The plates were read on the Alpha-technology compatible Envision multilabel plate reader using AlphaScreen protocol according to manufacturer's specifications. The agonist effect of compounds was expressed as 100× (average sample−average blank)/(average total−average blank) where sample is the luminescence activity in the presence of test compound, blank is equal to the luminescence activity in the presence of DMSO control and the total is signal induced by 50 μM linolenic acid as reference compound. Activation data for the test compound over a range of concentrations was plotted as percentage activation of the test compound (100%=maximum response). After correcting for background, EC50 values were determined.
The human and mouse GPR120-mediated intracellular phosphorylated ERK assays were also established using CHO-K1 cells stably transfected with the short form of human or mouse GPR120 receptor. […] Cells were cryo preserved at a concentration of 3×10^6 cells/mL, in 70% F-12, 20% Charcoal/Dextran FBS and 10% DMSO, and frozen in liquid nitrogen at a low passage number.
The flasks were placed in a tissue culture incubator overnight (37° C., 5% CO2).
Cells were then stimulated with 40 nL of compound dilutions using ECHO liquid handler for 7 minutes at 37° C.
as §1, with “compound.” for “compound. Activation data for the test compound over a range of concentrations was plotted as percentage activation of the test compound (100%=maximum response). After correcting for background, EC50 values were determined.”
Activation data for the test compound over a range of concentrations was plotted as percentage activation of the test compound (100%=maximum response). After correcting for background, EC50 values were determined.
In general terms: Bead proximity is the source of the signal in Alpha formats.
The compound `COc1ccc(OC(F)(F)F)cc1-c1ccc([C@H]2C[C@@H](OCC(=O)O)C2)cc1` [Example 16, Cis-2-(3-(2′-methoxy-5′-(trifluoromethoxy)-[1,1′-biphenyl]-4-yl)cyclobutoxy)acetic acid] showed a pEC50 of 6.32.

As for `CC(C)Oc1ccc(F)c(-c2ccc(CC3CC(CC(=O)O)C3)cc2)c1` (stereo not drawn) [Example 50, 2-(3-((2′-Fluoro-5′-isopropoxy-[1,1′-biphenyl]-4-yl)methyl)cyclobutyl)acetic acid], the negative-log EC50 (pEC50) is 6.19.

In turn, `Cc1ccc(Oc2ccc(F)c(-c3ccc([C@H]4C[C@@H](OCC(=O)O)C4)cc3)c2)nn1` [Example 29, Cis-2-(3-(2′-fluoro-5′-((6-methylpyridazin-3-yl)oxy)-[1,1′-biphenyl]-4-yl)cyclobutoxy)acetic acid] gave a negative-log EC50 (pEC50) of 5.30.

Compound `O=C(O)COCCC[C@H]1C[C@H](c2cccc(Oc3ccccc3)c2)C1` [Example 56, 2-(3-(Trans-3-(3-phenoxyphenyl)cyclobutyl)propoxy)acetic acid] showed a pEC50 of 6.77.

On to `Cc1ccc(Oc2cc(F)c(F)c(-c3ccc([C@H]4C[C@@H](OCC(=O)O)C4)cc3)c2)cc1F` [Example 35, Cis-2-(3-(2′,3′-difluoro-5′-(3-fluoro-4-methylphenoxy)-[1,1′-biphenyl]-4-yl)cyclobutoxy)acetic acid], for which the pEC50 is 6.54.

`COc1cc(Cl)cc(-c2ccc([C@H]3C[C@@H](OCC(=O)O)C3)cc2)c1` [Example 6, Cis-2-(3-(3′-chloro-5′-methoxy-[1,1′-biphenyl]-4-yl)cyclobutoxy)acetic acid]: the pEC50 was 6.06.

The compound `O=C(O)[C@H]1C[C@H](Oc2ccc(-c3cc(Oc4ccccc4)ccc3F)cc2)C1` [Example 64, Trans-3-((2′-fluoro-5′-phenoxy-[1,1′-biphenyl]-4-yl)oxy)cyclobutanecarboxylic acid] showed a negative logarithm of the EC50 (pEC50) of 6.36.

Compound `COC1(c2cccc(Oc3ccccc3)c2)CC(CCCOCC(=O)O)C1` (stereo not drawn) [Example 68, 2-(3-(3-Methoxy-3-(3-phenoxyphenyl)cyclobutyl)propoxy)acetic acid] had a pEC50 of 5.55.

For the compound `O=C(O)CO[C@H]1C[C@@H](c2ccc(-c3cc(OC4CCCCC4)ccc3F)cc2)C1` [Example 33, Cis-2-(3-(5′-(cyclohexyloxy)-2′-fluoro-[1,1′-biphenyl]-4-yl)cyclobutoxy)acetic acid], the pEC50 is 6.12.

`O=C(O)COCCC[C@H]1C[C@@H](c2cccc(Oc3ccccc3)c2)C1` [Example 58, 2-(3-(Cis-3-(3-phenoxyphenyl)cyclobutyl)propoxy)acetic acid] gave a pEC50 of 6.38.

In turn, `CC(C)Oc1ccc(F)c(-c2ccc(C3CC4(C3)CC4C(=O)O)cc2)c1` (single isomer, unassigned) [Example 41, 5-(2′-Fluoro-5′-isopropoxy-[1,1′-biphenyl]-4-yl)spiro[2.3]hexane-1-carboxylic acid] gave a negative logarithm of the EC50 (pEC50) of 4.49.

`CC(C)Oc1cc(F)cc(-c2ccc([C@H]3C[C@@H](OCC(=O)O)C3)cc2)c1` [Example 18, Cis-2-(3-(3′-fluoro-5′-isopropoxy-[1,1′-biphenyl]-4-yl)cyclobutoxy) acetic acid] gave a negative logarithm of the EC50 (pEC50) of 5.50.

`C[C@]1(CCCOCCC(=O)O)C[C@@H](c2cccc(Oc3ccccc3)c2)C1` [Example 62, 3-(3-(Cis-1-methyl-3-(3-phenoxyphenyl)cyclobutyl)propoxy)propanoic acid] gave a negative-log EC50 (pEC50) of 6.24.

The compound `Cc1cc(OC(C)C)cc(-c2ccc([C@H]3C[C@@H](OCC(=O)O)C3)cc2)c1` [Example 12, Cis-2-(3-(3′-isopropoxy-5′-methyl-[1,1′-biphenyl]-4-yl)cyclobutoxy) acetic acid] showed a negative logarithm of the EC50 (pEC50) of 6.37.

As for `Cc1nc(-c2ccccc2)c(-c2ccc([C@H]3C[C@@H](OCC(=O)O)C3)cc2)s1` [Example 23, Cis-2-(3-(4-(2-Methyl-4-phenylthiazol-5-yl)phenyl)cyclobutoxy)acetic acid], the negative-log EC50 (pEC50) was 5.46.
